Values quoted from earlier work as cited in publication PMC7403827 (Clinical and Translational Medicine, 2020).

Test system: CYP3A4
Design: method as in PMID 28967981
Settings: cited from earlier work

N#CC1(c2ccc(NC(=O)c3cccnc3NCc3ccncc3)cc2)CCCC1 [Apatinib]
inhibitory effect on CYP3A4: strong inhibitory effect
